For the assay, the target named is Nicotinamide phosphoribosyltransferase (Homo sapiens, UniProt P43490). The assay can be described thus: Biochemical Inhibition Assay: The NAMPT enzymatic reactions were carried out in Buffer A (50 mM Hepes pH 7.5, 50 mM NaCl, 5 mM MgCl2, and 1 mM THP) in 96-well V-bottom plates. The compound titrations were performed in a separate dilution plate by serially diluting the compounds in DMSO to make a 100x stock. Buffer A (89 uL) containing 33 nM of NAMPT protein was added to 1 uL of 100x compound ….
Nicotinamide phosphoribosyltransferase, sequence (P43490 whole entry): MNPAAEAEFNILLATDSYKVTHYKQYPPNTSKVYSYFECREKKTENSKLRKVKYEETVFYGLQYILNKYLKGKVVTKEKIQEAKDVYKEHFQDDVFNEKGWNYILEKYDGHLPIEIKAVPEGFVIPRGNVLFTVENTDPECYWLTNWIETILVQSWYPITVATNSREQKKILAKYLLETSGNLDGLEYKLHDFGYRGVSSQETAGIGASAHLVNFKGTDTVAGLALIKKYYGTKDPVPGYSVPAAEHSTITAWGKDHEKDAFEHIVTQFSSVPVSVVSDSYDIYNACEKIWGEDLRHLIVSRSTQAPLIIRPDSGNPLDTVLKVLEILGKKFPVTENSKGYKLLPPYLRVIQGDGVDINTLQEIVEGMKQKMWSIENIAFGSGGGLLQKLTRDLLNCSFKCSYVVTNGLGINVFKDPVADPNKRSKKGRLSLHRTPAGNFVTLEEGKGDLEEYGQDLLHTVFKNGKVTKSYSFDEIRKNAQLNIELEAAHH

The IC50 is the midpoint of a concentration-inhibition curve.

Description: Biochemical Inhibition Assay: The NAMPT enzymatic reactions were carried out in Buffer A (50 mM Hepes pH 7.5, 50 mM NaCl, 5 mM MgCl2, and 1 mM THP) in 96-well V-bottom plates. The compound titrations were performed in a separate dilution plate by serially diluting the compounds in DMSO to make a 100x stock. […] The compound and enzyme mix was incubated for 15 minutes at room temperature, then 10 uL of 10x substrate and co-factors in Buffer A were added to the test well to make a final concentration of 1 uM NAM, 100 uM 5-Phospho-D-ribose 1-diphosphate (PRPP), and 2.5 mM Adenosine 5'-triphosphate (ATP). The reaction was allowed to proceed for 30 minutes at room temperature, then was quenched with the addition of 11 uL of a solution of formic acid and L-Cystathionine to make a final concentration of 1% formic acid and 10 uM L-Cystathionine.

Compound `Cn1ncc2ccc(S(=O)(=O)c3ccc(NC(=O)/C=C/c4cccnc4)cc3)cc21` yielded an IC50 of 2.6 nM.
